In series [1] the target is T1, HIV-1 IN (wild-type) in the presence of LEDGF/p75 (Human immunodeficiency virus type 1 group M subtype B, UniProt P12497).
T1 construct: IN is a 32 kDa multimeric enzyme comprising three domains; His; made in house; host or cells: Escherichia coli BL21 (DE3)
The series is described as follows: HTRF HIV-1 IN LEDGF/p75-dependent assay (3'-processing and strand transfer), wild-type IN, with or without sucrose. The series is classed as biochemical. The settings on record: for IC50: IC50 IN LEDGF/p75-dependent integration. As to the method:
(§1) The IN LEDGF/p75-dependent and indepentent assay was performed for the evaluation of 3′-processing and strand-transfer IN reactions inhibition in the presence/absence of recombinant LEDGF/p75 protein, as previously described.
(§2) The same assay in the presence of HIV-1 IN wt, K173A and H185A mutant proteins, was used to evaluate the effect of sucrose in the presence of selected compounds.
(Time-resolved FRET reads energy transfer from a long-lived donor to a nearby acceptor.)

The next series concerns the target wt RT RNase H. More on the design: method as in PMID 33143469. The settings on record: previously reported quinazolinone; cited from earlier work.
Series [2] addresses T1, HIV-1 IN (wild-type) in the presence of LEDGF/p75. More on the design: method as in PMID 37764476, PMID 23631411. The settings on record: previously reported dihydroxyphenyl-thienopyrimidinones; read-out: IN LEDGF/p75-dependent IC50; cited from earlier work.
In series [3] the target is T2, HIV-1 IN in the absence of LEDGF/p75 (Human immunodeficiency virus type 1 group M subtype B, UniProt P12497).
T2 construct: His; made in house; host or cells: Escherichia coli BL21 (DE3)
Briefly: HTRF HIV-1 IN LEDGF/p75-independent assay. It counts as biochemical. The conditions noted are these: mean ± SE, three experiments, read-out: IC50 IN LEDGF/p75-independent integration. As to the method:
as §1

Another series addresses T3, HIV-1 IN multimerization (Human immunodeficiency virus type 1 group M subtype B, UniProt P12497).
T3 construct: IN is a 32 kDa multimeric enzyme comprising three domains; made in house; host or cells: Escherichia coli BL21 (DE3)
The series is described as follows: HTRF-based assay of higher-order, aberrant IN multimerization. It counts as biochemical. The conditions noted are these: dash = no induction of higher-order. How it is done:
(§3) HIV-1 His and FLAG-tagged INs were mixed in a mix buffer previously described and compounds added to the mixture and incubated for 2.5 h at room temperature. At the end of the time, a mixture of anti-His6-XL665 and anti-FLAG-EuCryptate antibodies were added to the reaction and, after an incubation time of 3 h, the HTRF signal was recorded as described in the previous paragraph.

For a further series, the system named is human T-cell line CEM-SS. The series is described as follows: Cytotoxicity in the XTT-based cell viability assay. The conditions noted are these: CEM-SS cells. How it is done:
(§4) Antiviral activity of selected thienopyrimidinones was determined via the 2,3-bis[2-methoxy-4-nitro-5-sulfophenyl]-5-[(phenylamino)-carbonyl]-2H tetrazolium hydroxide (XTT)-based cell viability assay, using the HIV-1RF isolate and human T-cell line CEM-SS.
In general terms: Formazan colour is commonly taken as a measure of viable cells.

A further series concerns the target T4, HIV-1 IN K173A mutant (Human immunodeficiency virus type 1 group M subtype B, UniProt P12497, K1320A).
T4 construct: IN is a 32 kDa multimeric enzyme comprising three domains; His; made in house; host or cells: Escherichia coli BL21 (DE3)
Briefly: HTRF IN LEDGF/p75-dependent assay on K173A mutant, with or without sucrose. The series is classed as biochemical. The conditions noted are these: for Fold of increase of potency, K173A mutant: with sucrose vs alone. As to the method:
(§5) The commercial QuikChange mutagenesis Kit (Agilent Technologies Inc., Santa Clara, CA, USA) were used to introduce the selected substitutions on HIV-1 IN wt plasmid and the correct presence of alanine in 173 and 185 position were evaluated in the electropherogram provided by Bio-Fab, after the sequencing.
(§6) HIV-1 IN wt, K173A and H185A mutant proteins were expressed in Escherichia coli strain BL21 (DE3) after transformation with a plasmid containing protein gene. Recombinant proteins were then purified using a Ni-Sepharose column and a heparin column and stored as previously described. LEDGF/p75 with 6-his and FLAG tags were purified with a heparin column and a Superdex 200 GL (Merck Sigma Aldrich, Milan, Italy) column previously described.
as §1, §2

For series [4], the target named is T5, HIV-1 IN-IN subunit exchange (Human immunodeficiency virus type 1 group M subtype B, UniProt P12497).
T5 construct: IN is a 32 kDa multimeric enzyme comprising three domains; made in house; host or cells: Escherichia coli BL21 (DE3)
Briefly: HTRF-based IN-IN subunit exchange assay. The series is classed as biochemical. The settings on record: for IC50: mean ± SE, three experiments. As to the method:
as §3

Series [5] concerns the target T6, HIV-1 IN/LEDGF/p75 binding (Human immunodeficiency virus type 1 group M subtype B, UniProt P12497).
T6 construct: IN is a 32 kDa multimeric enzyme comprising three domains; made in house; host or cells: Escherichia coli BL21 (DE3)
The series is described as follows: HTRF-based IN-LEDGF/p75 binding assay. The conditions noted are these: mean ± SE, three experiments. How it is done: The IN-LEDGF/p75 binding was evaluated using a FRET method, in which His-IN was pre-incubated with test compounds in a mix buffer previously described, for 30 min at room temperature. After the addition of FLAG-LEDGF/p75 and a mixture of anti-His6-XL665 and anti-FLAG-EuCryptate antibodies, the reaction was read after 4 h at 4 °C, using 314 nm for excitation wavelength and […] and 620 nm for the wavelength of the acceptor and donor emission, respectively, with a Perkin Elmer Victor 3 plate reader (Perkin Elmer, Waltham, MA, USA), and the HTRF signal calculated by the emission ratio 665 nm/620 nm multiplied by 10.000.

Another series concerns the target T7, HIV-1 IN H185A mutant (Human immunodeficiency virus type 1 group M subtype B, UniProt P12497, F1332A).
T7 construct: IN is a 32 kDa multimeric enzyme comprising three domains; His; made in house; host or cells: Escherichia coli BL21 (DE3)
Briefly: HTRF IN LEDGF/p75-dependent assay on H185A mutant, with or without sucrose. The settings on record: for IC50: LEDGF/p75-dependent activity; for Fold of increase of potency, H185A mutant: with sucrose vs alone. It counts as biochemical. As to the method: as §5, §6, §1, §2

Series [6] concerns HIV-1RF isolate in CEM-SS cells. Briefly: Antiviral activity, XTT-based cell viability assay. As to the method: as §4
[7] abbreviates: in the presence of LEDGF/p75, compound alone, mean ± SE, three experiments.
[8] abbreviates: LEDGF/p75-dependent, IC50 alone vs with sucrose.
Setting [9] is: HIV-1 IN H185A mutant IC50 alone, no sucrose.
The mark [10] stands for this setting: HIV-1 IN H185A mutant IC50 with sucrose, in the presence of sucrose.

Here are results for 19 molecules from PMC12735844, “2-(Trihydroxyphenyl)thienopyrimidinones as Key Scaffolds for Targeting a Novel Allosteric Site of HIV-1 Integrase” (Molecules, 2025).

Where “and” joins values, the source holds several entries; their conditions need not be identical. Identical values can stand only once. Like-named read-outs stand apart in the source and are kept apart here. Bounds are passed on as bounds.

Turning to `Cc1sc2nc(-c3cc(O)c(O)cc3O)[nH]c(=O)c2c1C` [C00002], in series [1] (setting [7]), the IC50 came to 0.45 ± 0.09 µM.
Same read-out and setting: the value for `O=c1[nH]c(-c2cc(O)c(O)c(O)c2)nc2sc3c(c12)CCCCC3` [C00006] was 0.31 ± 0.035 µM; that for `O=c1[nH]c(-c2c(O)cc(O)cc2O)nc2sc3c(c12)CCCCC3` [C00007] was 5.2 ± 1.2 µM; that for `O=c1[nH]c(-c2cc(O)c(O)cc2O)nc2sc3c(c12)CCC3` [C00008] was 1.96 ± 0.125 µM.
On the same count and under the same terms, the value for `O=c1[nH]c(-c2cc(O)c(O)c(O)c2)nc2sc3c(c12)CCC3` [C00009] was 0.87 ± 0.045 µM.
With `O=c1[nH]c(-c2ccc(O)c(O)c2)nc2ccc(I)cc12` [Compound 1], the IC50 at wt RT RNase H is 0.11 ± 0.01 µM.
As to `Cc1sc2nc(-c3cc(O)cc(O)c3)[nH]c(=O)c2c1C` [Compound 2], in series [2], the IC50 was 3.7 ± 0.73 µM.
Regarding `O=c1[nH]c(-c2cc(O)cc(O)c2)nc2sc3c(c12)CCCCC3` [Compound 3], the IC50 in [2] was 3.37 ± 0.48 µM.
`Cc1sc2nc(-c3cc(O)ccc3O)[nH]c(=O)c2c1C` [Compound 4]: the IC50 in series [2] is 85 ± 6 µM.
Turning to `Cc1sc2nc(-c3cc(O)c(O)c(O)c3)[nH]c(=O)c2c1C` [Compound 5, 5,6-Dimethyl-2-(3,4,5-trihydroxyphenyl)thieno[2,3-d]pyrimidin-4(3H)-one], the IC50 in series [1] (setting [7]) came to 8 ± 2 µM; in [3], 5.35 ± 0.55 µM.
On to `Cc1sc2nc(-c3cc(O)c(O)cc3O)[nH]c(=O)c2c1C` [Compound 6, 5,6-Dimethyl-2-(2,4,5-trihydroxyphenyl)thieno[2,3-d]pyrimidin-4(3H)-one], for which the “MI50 IN multimerization” value on HIV-1 IN multimerization is given as “none succeeded in inducing multimerization”. Also, in the series with human T-cell line CEM-SS, the cytotoxicity entry is “devoid of cytotoxicity”. Moreover, in series [1] (setting [8]), the “reduction in activity by sucrose (times)” value is “approximately 10”. For the same molecule, the IC50 at HIV-1 IN K173A mutant turned out to be 6.5 ± 1.7 µM; in [4] it was 5.45 ± 0.05 µM; in series [5], 75 ± 12 µM; in series [3], 0.76 ± 0.01 µM; at HIV-1 IN H185A mutant (setting [9]) it was 4.64 ± 0.7 µM; on HIV-1 IN H185A mutant (setting [10]), 0.48 ± 0.08 µM. Further, the “Fold of increase of potency, K173A mutant” value on HIV-1 IN K173A mutant is 32.5. Also, the “Fold of increase of potency, H185A mutant” value at HIV-1 IN H185A mutant is 9.7. The “effect on viral replication” value in [6] is “not able to inhibit viral replication”.
Consider `Cc1sc2nc(-c3c(O)cc(O)cc3O)[nH]c(=O)c2c1C` [Compound 7, 5,6-Dimethyl-2-(2,4,6-trihydroxyphenyl)thieno[2,3-d]pyrimidin-4(3H)-one], for which, in series [1] (setting [7]), the IC50 turned out to be 6.1 ± 1.6 µM.
Same read-out and setting: the result for `Cc1sc2nc(-c3ccc(O)c(O)c3O)[nH]c(=O)c2c1C` [Compound 8, 5,6-Dimethyl-2-(2,3,4-trihydroxyphenyl)thieno[2,3-d]pyrimidin-4(3H)-one] reads 11.8 ± 1.85 µM.
For `O=c1[nH]c(-c2cc(O)c(O)cc2O)nc2sc3c(c12)CCCCC3` [Compound 9, 2-(2,4,5-Trihydroxyphenyl)-3,5,6,7,8,9-hexahydro-4H-cyclohepta[4,5]thieno[2,3-d]pyrimidin-4-one], the “MI50 IN multimerization” value on HIV-1 IN multimerization is “none succeeded in inducing multimerization”. Moreover, the IC50 in [1] (setting [7]) is 0.965 ± 0.035 µM; in series [4], 6.35 ± 1.35 µM; in series [5], above 100 µM; in series [3], 0.99 ± 0.09 µM. The “IC50 IN/LEDGF/p75 binding” value in [5] is “inactive”.
On to `O=c1[nH]c(-c2cc(O)c(O)c(O)c2)nc2sc3c(c12)CCCCC3` [Compound 10, 2-(3,4,5-Trihydroxyphenyl)-3,5,6,7,8,9-hexahydro-4H-cyclohepta[4,5]thieno[2,3-d]pyrimidin-4-one], for which the “MI50 IN multimerization” value on HIV-1 IN multimerization was “none succeeded in inducing multimerization”. For the same molecule, the cytotoxicity result in the series with human T-cell line CEM-SS is on record as “devoid of cytotoxicity”. Also, the IC50 is 0.31 µM and 0.315 µM in series [1] (setting [7]); 3.3 ± 0.86 µM against HIV-1 IN K173A mutant; 2.05 ± 0.35 µM in series [4]; 6.16 ± 0.98 µM in series [5]; 3.6 ± 0.39 µM in series [3]; 2.27 ± 0.43 µM against HIV-1 IN H185A mutant (setting [9]). Also, at HIV-1 IN H185A mutant (setting [10]), the IC50 came out at 0.61 ± 0.022 µM. In series [1] (setting [8]), the “increase of inhibitory capacity by sucrose (times)” value is on record as around 16. In addition, the “Fold of increase of potency, K173A mutant” value at HIV-1 IN K173A mutant was 13.2. For the same molecule, the “Fold of increase of potency, H185A mutant” value on HIV-1 IN H185A mutant was found to be 3.7. Further, in series [6], the “effect on viral replication” value is “not able to inhibit viral replication”.
Regarding `O=c1[nH]c(-c2cc(O)c(O)cc2O)nc2sc3c(c12)CCC3` [Compound 12, 2-(2,4,5-Ttrihydroxyphenyl)-3,5,6,7-tetrahydro-4H-cyclopenta[4,5]thieno[2,3-d]pyrimidin-4-one], on HIV-1 IN multimerization, the “MI50 IN multimerization” value is reported as “none succeeded in inducing multimerization”. The values for the IC50 in [4], in series [5] and in series [3] were 17.3 ± 1.7 µM, 24.7 ± 1.75 µM and 0.86 ± 0.14 µM, respectively.
As to `O=c1[nH]c(-c2cc(O)c(O)c(O)c2)nc2sc3c(c12)CCC3` [Compound 13, 2-(3,4,5-Trihydroxyphenyl)-3,5,6,7-tetrahydro-4H-cyclopenta[4,5]thieno[2,3-d]pyrimidin-4-one], the IC50 in series [3] amounted to 1.12 ± 0.22 µM.
`CCCC(C(=O)O)c1c(C)nc2ccc(Cl)cc2c1-c1ccccc1` (centres unmarked) [LEDGIN-6, reference compound]: at HIV-1 IN multimerization (read-out: MI50 IN multimerization), the EC50 was 10 ± 1 µM. In addition, the IC50 in series [1] (setting [7]) is 9 ± 2 µM; in series [4] it was above 100 µM; in [5], 10 ± 0.4 µM; in series [3], 10 ± 2 µM. In [4] (meaning of the bracketed percentage is not defined in the paper), the “percentage in parentheses after >100, IN-IN subunit exchange” value is listed as >100 (100%).
Regarding `OC[C@H]1O[C@@](CO)(O[C@H]2O[C@H](CO)[C@@H](O)[C@H](O)[C@H]2O)[C@@H](O)[C@@H]1O` [sucrose, reference compound], the “IC50 IN LEDGF/p75-dependent integration” value in [1] (setting [7]) is “inactive”.
